Assay results: ChEMBL document CHEMBL1134130, “Carbonic anhydrase inhibitors: 4-sulfamoyl-benzenecarboxamides and 4-chloro-3-sulfamoyl-benzenecarboxamides with strong topical antiglaucoma properties” (Bioorg Med Chem Lett, 2001)

What was measured:
Carbonic anhydrase 2 = Carbonic anhydrase 2 (Homo sapiens, UniProt P00918)
Description: Binding affinity against human carbonic anhydrase II (hCA -II)

Carbonic anhydrase 1 = Carbonic anhydrase 1 (Homo sapiens, UniProt P00915)
Description: Binding affinity against human carbonic anhydrase I (hCA I)

Carbonic anhydrase 4 [1] = target: T1, Carbonic anhydrase 4 (Bos taurus, UniProt Q95323)
T1 sequence (Q95323 whole entry): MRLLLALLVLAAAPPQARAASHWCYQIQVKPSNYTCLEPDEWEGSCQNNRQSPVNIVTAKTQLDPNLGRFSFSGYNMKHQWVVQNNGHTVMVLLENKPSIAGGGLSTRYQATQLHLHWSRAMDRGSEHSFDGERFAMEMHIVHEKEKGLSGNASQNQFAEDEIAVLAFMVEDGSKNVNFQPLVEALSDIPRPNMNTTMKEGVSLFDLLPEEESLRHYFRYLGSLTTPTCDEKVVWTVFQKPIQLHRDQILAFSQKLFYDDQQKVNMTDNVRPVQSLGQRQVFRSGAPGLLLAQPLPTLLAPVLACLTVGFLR
Description: Compound was evaluated for binding affinity against bovine carbonic anhydrase IV (bCA IV)

[2] = Compound was evaluated for in vitro corneal permeability in no epithelium; assay type: ADME, tissue-based, Cornea
Oryctolagus cuniculus [3] = organism: Oryctolagus cuniculus
Description: Fall of in vivo intraocular pressure (IOP) of glaucomatous rabbits at 120 min after treatment with one drop (50 uL) solution of 2% of CA inhibitor directly into eye

physchem = settings: octanol/water
Description: Partition coefficient (logP)

Oryctolagus cuniculus [4] = organism: Oryctolagus cuniculus; remark: listed apart in the source
Description: In vivo intraocular pressure (IOP) lowering at 60 min in normotensive rabbits after treatment with one drop (50 uL) 2% solution of CA inhibitor directly into the eye, at 7.0 pH

Oryctolagus cuniculus [5] = organism: Oryctolagus cuniculus; remark: listed apart in the source
Description: In vivo intraocular pressure (IOP) lowering at 30 min in normotensive rabbits after treatment with one drop (50 uL) 2% solution of CA inhibitor directly into the eye, at 7.0 pH

Oryctolagus cuniculus [6] = organism: Oryctolagus cuniculus; remark: listed apart in the source
Description: Fall of in vivo intraocular pressure (IOP) of glaucomatous rabbits at 60 min after treatment with one drop (50 uL) solution of 2% of CA inhibitor directly into eye

Oryctolagus cuniculus [7] = organism: Oryctolagus cuniculus; remark: listed apart in the source
Description: In vivo intraocular pressure (IOP) lowering at 90 min in normotensive rabbits after treatment with one drop (50 uL) 2% solution of CA inhibitor directly into the eye, at 7.0 pH

Oryctolagus cuniculus [8] = organism: Oryctolagus cuniculus; remark: listed apart in the source
Description: Fall of in vivo intraocular pressure (IOP) of glaucomatous rabbits at 30 min after treatment with one drop (50 uL) solution of 2% of CA inhibitor directly into eye

Oryctolagus cuniculus [9] = organism: Oryctolagus cuniculus; remark: listed apart in the source
Description: Fall of in vivo intraocular pressure (IOP) of glaucomatous rabbits at 0 min after treatment with one drop (50 uL) solution of 2% of CA inhibitor directly into eye

[10] = Compound was evaluated for in vitro corneal permeability in cornea intact; assay type: ADME, tissue-based
Oryctolagus cuniculus [11] = organism: Oryctolagus cuniculus; remark: listed apart in the source
Description: In vivo intraocular pressure (IOP) lowering at 120 min in normotensive rabbits after treatment with one drop (50 uL) 2% solution of CA inhibitor directly into the eye, at 7.0 pH

Oryctolagus cuniculus [12] = organism: Oryctolagus cuniculus; remark: listed apart in the source
Description: Fall of in vivo intraocular pressure (IOP) of glaucomatous rabbits at 90 min after treatment with one drop (50 uL) solution of 2% of CA inhibitor directly into eye

Carbonic anhydrase 4 [13] = target: T1, Carbonic anhydrase 4; remark: listed apart in the source
Description: Compound was evaluated for binding affinity against bovine Carbonic anhydrase IV

Sequence of Carbonic anhydrase 1 (P00915 whole entry): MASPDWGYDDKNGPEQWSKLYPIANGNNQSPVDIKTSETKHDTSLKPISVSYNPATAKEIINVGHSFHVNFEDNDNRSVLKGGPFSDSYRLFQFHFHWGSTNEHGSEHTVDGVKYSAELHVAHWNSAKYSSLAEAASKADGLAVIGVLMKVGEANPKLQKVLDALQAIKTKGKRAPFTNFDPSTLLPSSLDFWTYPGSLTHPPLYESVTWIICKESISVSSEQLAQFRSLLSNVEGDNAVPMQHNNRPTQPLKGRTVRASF

SMILES | Ki (Carbonic anhydrase 2) [nM] | Ki (Carbonic anhydrase 1) [nM] | Ki (Carbonic anhydrase 4 [1]) [nM] | further results
NS(=O)(=O)c1cc(C(=O)N[C@H](C(=O)O)c2ccccc2)ccc1Cl | 160 | 105 | 240 | 
NS(=O)(=O)c1ccc(NC(=O)c2ccc(Cl)c(S(N)(=O)=O)c2)cc1 | 30 | 24 | 66 | 
NC(=O)C[C@H](NC(=O)c1ccc(Cl)c(S(N)(=O)=O)c1)C(=O)O | 275 | 240 | 330 | 
C[C@H](NC(=O)c1ccc(S(N)(=O)=O)cc1)C(=O)N[C@@H](Cc1ccccc1)C(=O)O | 12 | 320 | 24 | 
NS(=O)(=O)c1cc(C(=O)N[C@@H](Cc2c[nH]cn2)C(=O)O)ccc1Cl | 210 | 103 | 350 | 
NS(=O)(=O)c1cc(C(=O)NCC(=O)O)ccc1Cl | 450 | 210 | 600 | 
NS(=O)(=O)c1ccc(C(=O)N[C@@H](Cc2c[nH]cn2)C(=O)N[C@@H](Cc2ccccc2)C(=O)O)cc1 | 9 | 240 | 23 | Km x10e3 [2]: 5.8 hr-1; Delta IOP (Oryctolagus cuniculus [3]): 10 mmHg; logP (physchem): 1.74; Delta IOP (Oryctolagus cuniculus [4]): 6.5 mmHg; Delta IOP (Oryctolagus cuniculus [5]): 4.2 mmHg; Delta IOP (Oryctolagus cuniculus [6]): 12 mmHg; Delta IOP (Oryctolagus cuniculus [7]): 9.1 mmHg; Delta IOP (Oryctolagus cuniculus [8]): 7.1 mmHg; Delta IOP (Oryctolagus cuniculus [9]): 0 mmHg; Km x10e3 [10]: 2.9 hr-1; Delta IOP (Oryctolagus cuniculus [11]): 9.5 mmHg; Delta IOP (Oryctolagus cuniculus [12]): 11 mmHg
C[C@@H](O)[C@H](NC(=O)c1ccc(S(N)(=O)=O)cc1)C(=O)O | 115 | 475 | 350 | 
CC(C)C[C@H](NC(=O)c1ccc(Cl)c(S(N)(=O)=O)c1)C(=O)NCC(=O)O | 51 | 39 | 80 | 
NC(=O)CC[C@H](NC(=O)c1ccc(S(N)(=O)=O)cc1)C(=O)O | 75 | 425 | 160 | 
NS(=O)(=O)c1cc(C(=O)N[C@@H](Cc2ccccc2)C(=O)O)ccc1Cl | 250 | 135 | 340 | 
NS(=O)(=O)c1cc(C(=O)NCCC(=O)N[C@@H](Cc2cnc[nH]2)C(=O)O)ccc1Cl | 36 | 30 | 50 | 
NS(=O)(=O)c1ccc(C(=O)N[C@@H](Cc2cnc[nH]2)C(=O)O)cc1 | 40 | 270 | 125 | 
CSCC[C@H](NC(=O)c1ccc(S(N)(=O)=O)cc1)C(=O)O | 66 | 400 | 150 | 
CC[C@H](C)[C@H](NC(=O)c1ccc(Cl)c(S(N)(=O)=O)c1)C(=O)O | 280 | 150 | 360 | 
NS(=O)(=O)c1ccc(C(=O)N[C@@H](Cc2ccc(O)cc2)C(=O)O)cc1 | 45 | 535 | 120 | 
NS(=O)(=O)c1ccc(C(=O)NCCCC(=O)O)cc1 | 73 | 415 | 120 | 
NS(=O)(=O)c1ccc(C(=O)NCC(=O)NCC(=O)O)cc1 | 42 | 350 | 50 | 
NS(=O)(=O)c1cc(C(=O)N[C@H](C(=O)O)C(O)c2ccccc2)ccc1Cl (stereo partly drawn) | 62 | 37 | 98 | 
NS(=O)(=O)c1ccc(C(=O)Nc2nnc(S(N)(=O)=O)s2)cc1 | 3 | 35 | 15 | 

SMILES | Ki (Carbonic anhydrase 2) [nM] | Ki (Carbonic anhydrase 1) [nM] | Ki (Carbonic anhydrase 4 [1]) [nM] | further results
NS(=O)(=O)c1cc(C(=O)NCCC(=O)O)ccc1Cl | 450 | 205 | 610 | 
NS(=O)(=O)c1cc(C(=O)N[C@@H](CCC(=O)O)C(=O)O)ccc1Cl | 340 | 305 | 400 | 
CC(C)C[C@H](NC(=O)c1ccc(S(N)(=O)=O)cc1)C(=O)O | 53 | 405 | 90 | 
NS(=O)(=O)c1ccc(C(=O)NC(C(=O)O)c2ccccc2)cc1 (stereo not drawn) | 36 | 250 | 75 | 
NS(=O)(=O)c1ccc(C(=O)NC(Cc2ccc(O)c(O)c2)C(=O)O)cc1 (stereo not drawn) | 43 | 520 | 105 | 
NS(=O)(=O)c1cc(C(=O)N[C@@H](Cc2c[nH]cn2)C(=O)NCC(=O)O)ccc1Cl | 50 | 41 | 73 | 
NC(=O)CC[C@H](NC(=O)c1ccc(Cl)c(S(N)(=O)=O)c1)C(=O)O | 305 | 250 | 410 | 
NS(=O)(=O)c1ccc(CNC(=O)c2ccc(Cl)c(S(N)(=O)=O)c2)cc1 | 28 | 24 | 61 | 
C[C@H](NC(=O)c1ccc(S(N)(=O)=O)cc1)C(=O)O | 79 | 425 | 75 | 
NS(=O)(=O)c1ccc(C(=O)N[C@@H](CS)C(=O)O)cc1 | 110 | 450 | 230 | 
NS(=O)(=O)c1ccc(C(=O)NCCC(=O)N[C@@H](Cc2c[nH]cn2)C(=O)O)cc1 | 16 | 270 | 21 | 
NS(=O)(=O)c1cc(C(=O)N[C@@H](CC(=O)O)C(=O)O)ccc1Cl | 300 | 285 | 355 | 
NS(=O)(=O)c1ccc(C(=O)N[C@@H](CCC(=O)O)C(=O)O)cc1 | 74 | 430 | 160 | 
NS(=O)(=O)c1ccc(C(=O)N[C@@H](CC(=O)O)C(=O)O)cc1 | 73 | 425 | 150 | 
C[C@@H](O)[C@H](NC(=O)c1ccc(Cl)c(S(N)(=O)=O)c1)C(=O)O | 520 | 320 | 735 | 
NC(=O)C[C@H](NC(=O)c1ccc(S(N)(=O)=O)cc1)C(=O)O | 72 | 410 | 155 | 
CSCC[C@H](NC(=O)c1ccc(Cl)c(S(N)(=O)=O)c1)C(=O)O | 410 | 240 | 650 | 
NS(=O)(=O)c1ccc(C(=O)NCC(=O)O)cc1 | 85 | 500 |  | Ki (Carbonic anhydrase 4 [13]): 200 nM
NS(=O)(=O)c1cc(C(=O)N[C@@H](CO)C(=O)O)ccc1Cl | 290 | 170 | 395 | 
NS(=O)(=O)c1cc(C(=O)NCCCC(=O)O)ccc1Cl | 400 | 200 | 540 | 

SMILES | Ki (Carbonic anhydrase 2) [nM] | Ki (Carbonic anhydrase 1) [nM] | Ki (Carbonic anhydrase 4 [1]) [nM] | further results
NS(=O)(=O)c1cc(C(=O)NCC(=O)NCC(=O)O)ccc1Cl | 85 | 69 | 170 | 
NS(=O)(=O)c1cc(C(=O)NC(Cc2ccc(O)c(O)c2)C(=O)O)ccc1Cl (stereo not drawn) | 240 | 100 | 330 | 
NS(=O)(=O)c1ccc(CNC(=O)c2ccc(S(N)(=O)=O)cc2)cc1 | 7 | 40 | 16 | 
NS(=O)(=O)c1cc(C(=O)N[C@@H](CS)C(=O)O)ccc1Cl | 490 | 300 | 720 | 
NS(=O)(=O)c1ccc(C(=O)NCCC(=O)O)cc1 | 85 | 435 |  | Ki (Carbonic anhydrase 4 [13]): 190 nM
CC(C)[C@H](NC(=O)c1ccc(Cl)c(S(N)(=O)=O)c1)C(=O)O | 330 | 130 | 360 | 
CC(C)[C@H](NC(=O)c1ccc(S(N)(=O)=O)cc1)C(=O)O | 74 | 420 | 150 | 
NS(=O)(=O)c1ccc(CCNC(=O)c2ccc(S(N)(=O)=O)cc2)cc1 |  |  | 13 | Km x10e3 [2]: 6.3 hr-1; logP (physchem): 1.43; Km x10e3 [10]: 2.5 hr-1
NS(=O)(=O)c1ccc(C(=O)N[C@H](C(=O)O)C(O)c2ccccc2)cc1 (stereo partly drawn) | 21 | 54 | 62 | 
C[C@H](NC(=O)c1ccc(Cl)c(S(N)(=O)=O)c1)C(=O)O | 420 | 175 | 475 | 
CC(C)C[C@H](NC(=O)c1ccc(Cl)c(S(N)(=O)=O)c1)C(=O)O | 305 | 125 | 330 | 
NS(=O)(=O)c1ccc(C(=O)N[C@@H](Cc2c[nH]cn2)C(=O)NCC(=O)O)cc1 | 10 | 380 | 19 | 
C[C@H](NC(=O)c1ccc(Cl)c(S(N)(=O)=O)c1)C(=O)N[C@@H](Cc1ccccc1)C(=O)O | 44 | 36 | 72 | 
NS(=O)(=O)c1cc(C(=O)N[C@@H](Cc2ccc(O)cc2)C(=O)O)ccc1Cl | 250 | 115 | 325 | 
NS(=O)(=O)c1cc(C(=O)N[C@@H](Cc2c[nH]cn2)C(=O)N[C@@H](Cc2ccccc2)C(=O)O)ccc1Cl | 38 | 27 | 45 | 
NS(=O)(=O)c1ccc(C(=O)N[C@@H](CO)C(=O)O)cc1 | 120 | 440 | 325 | 
NS(=O)(=O)c1cc(C(=O)Nc2nnc(S)s2)ccc1Cl | 11 | 15 | 21 | 
NS(=O)(=O)c1ccc(CCNC(=O)c2ccc(Cl)c(S(N)(=O)=O)c2)cc1 | 26 | 21 | 63 | 
NS(=O)(=O)c1ccc(C(=O)N[C@@H](Cc2ccccc2)C(=O)O)cc1 | 52 | 560 | 130 | 
CCC(C)[C@H](NC(=O)c1ccc(S(N)(=O)=O)cc1)C(=O)O (single isomer, unassigned) | 48 | 350 | 86 | 
